According to patent US20250034127A1, “AUTOPHAGY INDUCING COMPOUNDS AND USES THEREOF, IN PARTICULAR FOR DISEASES OF THE CNS” (Samsara Therapeutics Inc., priority 2021, published 2025):
Like-named read-outs stand apart in the source and are kept apart here.

Columns and labels:
[1] = system: primary culture of dopaminergic Tyrosine hydroxylase (TH)-positive neurons; assay: Cellular model of Parkinson's disease (MPTP/MPP+ injury); type: cell-based, rat; conditions: for decrease in α-syn area per dopaminergic TH positive neuron / increase in the length of the neurite network of dopaminergic TH positive neurons / increase in the number of dopaminergic TH positive neurons: compared to MPP+ injury alone
Excerpt: This model (run by Neuro-Sys SAS, France) is based on a primary culture of dopaminergic Tyrosine hydroxylase (TH)-positive neurons injured with the dopaminergic neurons-specific toxin (DA-toxin) 1-methyl-4-phenyl-1,2,3,6 tetrahydropyridine (MPTP, a prodrug of MPP^+) (Dauer and Przedborski, 2003). Any substances reducing DA-toxin neurotoxicity may be useful as a new therapeutic agent for the treatment or prevention of PD.
Primary culture of mesencephalic neurons: Rat dopaminergic neurons were cultured as described by Visanji et al., 2008 and Callizot et al., 2019. Briefly, pregnant female rat (Wistar) of 15 days of gestation were killed using a deep anesthesia with CO2 chamber and a cervical dislocation. The midbrains obtained from 15-day-old rat embryos (Janvier, France) were dissected under a microscope. The embryonic midbrains will be removed and placed in ice-cold medium of Leibovitz (L15) containing 2% of Penicillin-Streptomycin (PS) and 1% of bovine serum albumin (BSA). The ventral portion of the mesencephalic flexure, a region of the developing brain rich in dopaminergic neurons, was used for the cell preparations.
The midbrains were dissociated by trypsinisation for 20 min at 37° C. (solution at a final concentration of 0.05% trypsin and 0.02% EDTA). The reaction was stopped by the addition of Dulbecco's modified Eagle's medium (DMEM) containing DNAase I grade II (0.5 mg/mL) and 10% of foetal calf serum (FCS). Cells were then mechanically dissociated by 3 passages through a 10 ml pipette. Cells were then centrifuged at 180×g for 10 min at +4° C. on a layer of BSA (3.5%) in L15 medium. The supernatant was discarded, and the cell pellets re-suspended in a defined culture medium consisting of Neurobasal supplemented with B27 (2%), L-glutamine (2 mM) and 2% of PS solution and 10 ng/mL of Brain-derived neurotrophic factor (BDNF) and 1 ng/ml of Glial-Derived Neurotrophic Factor (GDNF). Viable cells were counted in a Neubauer cytometer using the trypan blue exclusion test. The cells were seeded at a density of 40,000 cells/well in 96 well-plates (pre-coated with poly-L-lysine) and maintained in a humidified incubator at 37° C. in 5% CO2/95% air atmosphere. Half of the medium was changed every 2 days with fresh medium. The wells of first and last lines and columns […] (to avoid any edge effect) and were be filled with sterile water.
• i) Pre-incubation. On day 6 of culture, the test compounds were dissolved in PBS or DMSO and incubated for 1 hour before the MPTP exposure. • ii) Injury. One hour after the application of test compound, MPTP was added to a final concentration of 4 μM, diluted in control medium still in presence of compounds/inhibitors for 48 h. Test compounds were tested on one culture in 96-well plate (n=6 culture wells per condition).
Immunostaining: TH and α-Synuclein. 48 Hours after intoxication, the cell culture supernatant was removed, and the cells were fixed by a solution of 4% paraformaldehyde in PBS, pH=7.3 for 20 min at room temperature. The cells were washed twice in PBS, and then permeabilized. Non-specific sites were blocked with a solution of PBS containing 0.1% of saponin and 1% FCS for 15 min at room temperature. The cultures were incubated with: (a) monoclonal anti-Tyrosine Hydroxylase (TH) antibody produced in mouse at dilution of 1/10000 in PBS containing 1% FCS, 0.1% saponin, for 2 hours at room temperature, and (b) polyclonal anti-alpha synuclein (α-synuclein) antibody produced in rabbit at dilution of 1/200 in PBS containing 1% FCS, 0.1% saponin, for 2 h at room temperature.
Automatic computer analysis. For each condition, 20 pictures (representing the whole well area) were automatically taken using ImageXpress® (Molecular Devices) at 10× magnification (20 pictures, for TH and α-synuclein into TH neurons) using the same acquisition parameters. From images, analyses was directly and automatically performed by MetaXpress® (Molecular Devices). […]

[2] = system: primary spinal cord lower motor neurons (MNs) from SOD1 G93A Tg rats; assay: Cellular model of Amyotrophic Lateral Sclerosis (glutamate injury); type: cell-based, rat
Protocol: Compounds 157 (particularly) preferred), 185 and 196 were selected example compounds if this invention to evaluate in this model. This model (run by Neuro-Sys SAS, France) evaluates the protective effects of test compounds on primary spinal cord lower motor neurons (MNs) from SOD1 G93A Tg rats, after a glutamate injury. The MNs are pre-treated with the test compounds for 1 hour prior to exposure to glutamate, and readouts are measured 24 hours later. This model functions as an in vitro model of Amyotrophic Lateral Sclerosis. […] Any substances which can attenuate one or more of these effects can be considered to have protective effects in the model and may be useful as a new therapeutic agent for the treatment or prevention of ALS.
Genotyping of SOD1 Tg embryos: Pregnant female rat SODIG93A (Sprague Dawley, Taconic), of 14 days of gestation were obtained fromTaconic Bioscience. On the day of the dissection (from pregnant females at 14 days of gestation), a piece of each embryo brain (˜3 mm) was placed in a 2 mL tube free DNase with a new scalpel. The DNA was extracted with the SYBR Green Extract-N-Amp tissue PCR kit (Sigma Aldrich). Briefly, 120 μL of extraction solution was put on each piece of embryo heads. Then, they were incubated for 10 min at room temperature. At the end of this incubation period, the heads were incubated for 5 min at 95° C. Immediately after this last incubation, 100 μL of neutralizing solution was added; each DNA extract was diluted at 1/40 and stored at +4° C. until use. SOD1G93A gene was determined using genomic fragment with human SOD1 primers (5′-[…]-3′ (SEQ ID NO: 1); 5′-[…]-3′ (SEQ ID NO: 2)). The SOD1 primers were diluted at 3 μM in sterile ultrapure water. Briefly, a mix for PCR was prepared with ultrapure water (4 μL per sample), primer at 3 μM (2 μL per sample) and Master Mix (10 μL per sample). In a PCR 96 wells plate, 16 μL of PCR mix was added in each well. 4 μL of each diluted DNA was added according to a plan deposit. The RT-PCR was ran using the CFX96 Biorad RT-PCR system, using the following program: Initial denaturation (95° C., 20 sec)/45 cycles (95° C., 10 sec; 65° C., 10 sec; 72° C., 30 sec)/Melt curve (95° C., 15 sec; 64° C., 1 min; 90° C., 30 sec; 60° C. 15 sec). The amplification plots and melt curves were analyzed with the Biorad software. The results for each sample were compared to negative control (ultrapure water) and to the positive control (DNA from Tg embryos).
Rat spinal cord motor neurons (MNs) were be cultured as described by Wang et al. 2013 and Boussicault et al., 2020. Briefly, pregnant female rats of 14 days gestation (Sprague Dawley; Taconic) were killed using a deep anesthesia with CO2 chamber and a cervical dislocation. Then, fetuses were removed from the uterus and immediately placed in ice-cold L15 Leibovitz medium with a 2% penicillin (10,000 U/ml) and streptomycin (10 mg/ml) solution (PS) and 1% bovine serum albumin (BSA).
Spinal cords were treated for 20 min at 37° C. with a trypsin-EDTA solution at a final concentration of 0.05% trypsin and 0.02% EDTA. The dissociation was stopped by addition of Dulbecco's modified Eagle's medium (DMEM) with 4.5 g/liter of glucose, containing DNAse I grade II (final concentration 0.5 mg/mL) and 10% fetal calf serum (FCS). Cells were mechanically dissociated by three forced passages through the tip of a 10-ml pipette. Cells were then centrifuged at 515×g for 10 min at 4° C. The supernatant was discarded, and the pellet was resuspended in a defined culture medium consisting of Neurobasal medium with a 2% solution of B27 supplement, 2 mmol/liter of L-glutamine, 2% of PS solution, and 10 ng/ml of brain-derived neurotrophic factor (BDNF). Viable cells were counted in a Neubauer cytometer, using the trypan blue exclusion test. The cells were seeded at a density of 20,000 per well in 96-well plates precoated with poly-L-lysine and will be cultured at 37° C. in an air (95%)—CO2 (5%) incubator. […]

[3] = Bioavailability / brain and plasma pharmacokinetics after oral dosing; type: in vivo; conditions: CD1 mice; for half-life / bioavailability: mouse
Excerpt: The compounds according to the invention have good properties for oral dosing and readily cross the blood brain barrier.

[4] = brain, oral dose of 30 mg/kg, read-out: half-life in the brain (converted)
[5] = plasma, oral, 30 mg/kg, read-out: half-life in plasma (converted)

Row | SMILES | effects in the in vitro model of PD based on MPP+ injury [1] | decrease in α-syn area per dopaminergic TH positive neuron ([1]; 500 nM, 1 μM and 10 μM) [%] | increase in the length of the neurite network of dopaminergic TH positive neurons ([1]; 500 nM, 1 μM and 10 μM) [%] | increase in the number of dopaminergic TH positive neurons ([1]; 500 nM, 1 μM and 10 μM) [%] | effects in the in vitro model of ALS [2] | abnormal cytoplasmic TDP-43 accumulation resulting from glutamate injury ([2]; 0.1 μM, 0.5 µM and 1 μM) | maximum concentration in brain plasma ([3]; oral dose of 30 mg/kg) [ng/mL] | time of maximum concentration in brain plasma ([3]; oral dose of 30 mg/kg) [h] | half-life [3, 4] [h] | bioavailability ([3]; plasma, 30 mg/kg, oral) [%] | half-life [3, 5] [h] | decrease in α-syn area per dopaminergic TH positive neuron ([1]; 1 μM) [%] | increase in the length of the neurite network of dopaminergic TH positive neurons ([1]; 1 μM) [%] | increase in the number of dopaminergic TH positive neurons ([1]; 1 μM) [%] | increase in neurite network length ([2]; 0.1 μM, 0.5 μM and 1 μM, compared to glutamate injury alone) [%] | abnormal TDP43 accumulation in the cytoplasm resulting from glutamate injury ([2]; 0.1 μM, 0.5 µM, 1 μM and 10 μM)
1 | CCN1CCC(NC(=O)c2csc(-c3cnn(-c4ccccc4)c3)n2)CC1 [Compound 185, N-(1-ethylpiperidin-4-yl)-2-(1-phenyl-1H-pyrazol-4-yl)-1,3-thiazole-4-carboxamide] | positive effects | > 14 | > 27 | > 22 | positive effects | fully abolished | 3457 | 1 | 13 | 100 | 18 | – | – | – | – | –
2 | C[C@H]1CN(C(=O)c2csc(-c3cnn(-c4ccccc4)c3)n2)CCN1 [Compound 157, (3S)-3-methyl-1-[2-(1-phenyl-1H-pyrazol-4-yl)-1,3-thiazole-4-carbonyl]piperazine] | positive effects | – | – | – | positive effects | – | 2153 | 1.5 | 1.8 | 81 | 1.8 | 21 | 35 | 27 | > 20 | fully abolished
